# According to publication PMC8451604, “Rational formulation engineering of fraxinellone utilizing 6-O-α-D-maltosyl-β-cyclodextrin for enhanced oral bioavailability and hepatic fibrosis therapy” (Drug Delivery, 2021):
# Experiments:
# [1] = Phase solubility study of Frax with CDs; type: physicochemical; conditions: 37 °C, from phase solubility curves
# Experimental: Frax was excessively mixed with increasing molar concentrations (0–350.00 mM) of each CD aqueous solution. […] The samples were subjected to HPLC analysis after centrifugation (4024.8 g, 10 min). Phase solubility profiles were plotted by monitoring Frax concentration as a function of the molar concentration of each CD. Based on the phase solubility curves, we calculated the apparent stability constants (Kc, L/mol) according to Equation (1): (1) Kc=Slope/S0(1−Slope) where S0 is the water solubility of Frax at equilibrium.
# Caco-2 cells = experiment: Cytotoxicity in Caco-2 cells (MTT assay); type: cell-based; conditions: 4 h
# Experimental: (§1) Cytotoxicity effects and cellular uptake ability of Frax, CDs, and CDs-Frax complexes were examined using Caco-2 cells. […] Each CD solution was also used to determine whether the cell toxicity was caused by Frax or CDs. For cellular uptake studies, Caco-2 cells were treated with Frax and CDs-Frax (100 μg/mL) for 0.5, 1, and 2 h, respectively. For P-gp inhibition evaluation, the cells were pretreated with verapamil at a concentration of 100 μg/mL and further treated with each drug or formulation. Thereafter, the cells were washed and replenished with fresh PBS (300 μL). The cell lysate was prepared by three cycles of freeze-thaw. Protein concentration in the samples was quantified by the BCA kit while the Frax concentration was determined by HPLC.
# [2] = Cytotoxicity in Caco-2 cells (MTT assay); type: cell-based; conditions: human, Caco-2 cells; Caco-2, 300 μg/mL, 4 h; read-out: cell viability (cells remained viable)
# Experimental: as §1
# [3] = Safety evaluation for seven weeks, histological examination (H&E); type: in vivo, Kunming male mice; conditions: mice, oral daily for 7 weeks, 20 mg/kg or equivalent G2-β-CD
# Experimental: (§2) The Kunming male mice (weight of 28–30 g) were divided into 10 groups (n = 10): normal group, Frax or G2-β-CD-Frax treatment groups with a Frax dose of 5, 10, and 20 mg/kg, respectively, G2-β-CD solution treatment (equivalent to 20 mg/kg of G2-β-CD-Frax) group. Drug treatment continued every day for 7 weeks. One day after the last administration, blood and major tissues (heart, liver, spleen, lung, and kidney) were obtained from the blank group and drug-treated groups (20 mg/kg) for histological examination. The whole blood was directly analyzed using an automatic blood cell analyzer to obtain hematological parameters. The collected tissues were subjected to histological examination.
# [4] = Blood biochemical assay (hematological parameters); type: in vivo, Kunming male mice; conditions: mice
# Experimental: as §2
# [5] = 7 weeks, colchicine group (0.2 mg/kg), in % (unit assumed)
# [6] = 7 weeks, colchicine group (0.2 mg/kg), in fL (unit assumed)
molecule,measurement,setting,value
Sulfobutyl ether-β-cyclodextrin [SBE-β-CD],apparent stability constant (Kc) for Frax complexation,[1],168.20 M⁻¹
same,cell viability,"Caco-2 cells; Caco-2, 200 and 300 μg/mL",lower than 80%
"CC(O)COC[C@H]1O[C@@H]2O[C@H]3[C@H](O)[C@@H](O)[C@@H](O[C@H]4[C@H](O)[C@@H](O)[C@@H](O[C@H]5[C@H](O)[C@@H](O)[C@@H](O[C@H]6[C@H](O)[C@@H](O)[C@@H](O[C@H]7[C@H](O)[C@@H](O)[C@@H](O[C@H]8[C@H](O)[C@@H](O)[C@@H](O[C@H]1[C@H](O)[C@H]2O)O[C@@H]8COCC(C)O)O[C@@H]7COCC(C)O)O[C@@H]6COCC(C)O)O[C@@H]5COCC(C)O)O[C@@H]4COCC(C)O)O[C@@H]3COCC(C)O (stereo partly drawn) [HP-β-CD, 2-hydroxypropyl-β-cyclodextrin]",apparent stability constant (Kc) for Frax complexation,[1],807.32 M⁻¹
same,"viability at 4 h, 300 μg/mL",[2],> 85%
"OC[C@H]1O[C@H](O[C@H]2[C@H](O)[C@@H](O)[C@@H](OC[C@H]3O[C@@H]4O[C@H]5[C@H](O)[C@@H](O)[C@@H](O[C@H]6[C@H](O)[C@@H](O)[C@@H](O[C@H]7[C@H](O)[C@@H](O)C(O[C@H]8[C@H](O)[C@@H](O)[C@@H](O[C@H]9[C@H](O)[C@@H](O)[C@@H](O[C@H]%10[C@H](O)[C@@H](O)[C@@H](O[C@H]3[C@H](O)[C@H]4O)O[C@@H]%10CO)O[C@@H]9CO)O[C@@H]8CO)O[C@@H]7CO)O[C@@H]6CO)O[C@@H]5CO)O[C@@H]2CO)[C@H](O)[C@@H](O)[C@@H]1O [G2-β-CD, 6-O-α-D-maltosyl-β-cyclodextrin]",apparent stability constant (Kc) for Frax complexation,[1],997.68 M⁻¹
same,cell viability (cells remained viable),"Caco-2 cells; Caco-2, 300 μg/mL",over 85%
same,H&E staining of major tissues,[3],no inflammation and no cellular damage
same,changes in blood biochemical assay (in words),[4]; oral daily for 7 weeks,no obvious changes
"COc1cc2c(c(OC)c1OC)-c1ccc(OC)c(=O)cc1[C@@H](NC(C)=O)CC2 [Colchicine, colchicine, reference compound]",MCHC (mean corpuscular hemoglobin concentration),[4]; 7 weeks,341.86 ± 9.91
same,PDW (platelet distribution width),[4]; 7 weeks,14.99 ± 0.22
same,PLT (platelet),"[4]; 7 weeks, colchicine group (0.2 mg/kg), in 10^9/L (unit assumed)",1363.86 ± 333.63
same,HCT (haematocrit),[4]; [5],39.06 ± 2.62
same,RDW-CV (red cell volume distribution width),[4]; [5],16.24 ± 1.60
same,MCV (mean cell volume),[4]; [6],43.09 ± 2.97
same,MPV (meanplateletvolume),[4]; [6],6.80 ± 0.51
same,RDW-SD,[4]; [6],29.86 ± 4.02
same,HGB (hemoglobin),"[4]; 7 weeks, colchicine group (0.2 mg/kg), in g/L (unit assumed)",133.57 ± 9.50
same,MCH (mean corpuscular hemoglobin),"[4]; 7 weeks, colchicine group (0.2 mg/kg), in pg (unit assumed)",14.71 ± 0.70
same,WBC (white blood cell),"[4]; 7 weeks, in 10^9/L (unit assumed)",9.61 ± 4.41
same,RBC (red blood cell),"[4]; 7 weeks, in 10^12/L (unit assumed)",9.13 ± 1.01
"OC[C@H]1O[C@@H]2O[C@H]3[C@H](O)[C@@H](O)[C@@H](O[C@H]4[C@H](O)[C@@H](O)[C@@H](O[C@H]5[C@H](O)[C@@H](O)[C@@H](O[C@H]6[C@H](O)[C@@H](O)[C@@H](O[C@H]7[C@H](O)[C@@H](O)[C@@H](O[C@H]8[C@H](O)[C@@H](O)[C@@H](O[C@H]1[C@H](O)[C@H]2O)O[C@@H]8CO)O[C@@H]7CO)O[C@@H]6CO)O[C@@H]5CO)O[C@@H]4CO)O[C@@H]3CO [β-CD, β-cyclodextrin]",apparent stability constant (Kc) for Frax complexation,[1],109.34 M⁻¹
